From article PMC12720113, “The binding mechanism of a novel ferrous ion chelating peptide from chicken blood hemoglobin and the bioavailability of the chelate” (Food Chemistry: X, 2025)
Where two headings read alike, the source gives them in different places. Marks after values point to notes of the source that are not given here. Where no end group is shown, it is not given here.

Columns and labels:
[1] = Effect of different dietary components on iron retention; assay type: in vitro ADME
Procedure: Then, the pH was adjusted to 2.0, and oxalic acid solution (1 %, w/v) was added. Gastrointestinal digestion simulation was then performed under the conditions described in 2.9.2. After the reaction was complete, the enzyme was inactivated, and the supernatant was collected after centrifugation. To assess the effects of phytate and dietary fiber on iron absorption, 1 % phytate and 8 % dietary fiber were added to the sample solution, and the digestion and measurement steps were repeated. By comparing changes in iron retention under different treatment conditions, the impacts of phytate and dietary fiber on the stability of […] chelate were analyzed. For calculations of iron retention rates, refer to Section 2.9.1.

[2] = In vitro digestive simulation (iron retention); assay type: in vitro ADME
Procedure: In vitro simulated digestion of […] according to [Ding et al. (2025)]. […] To simulate the digestive processes of the stomach and intestines separately, the pH values of the three iron supplements were adjusted to 2.0 and 7.6, respectively, and pepsin and trypsin (3 %, w/w) were added separately. The mixture was incubated in a water bath at 37 °C for 2 h. To simulate the digestive processes of the gastrointestinal tract, the three iron supplements were subjected to simulated gastric digestion followed by intestinal digestion. The retention rates of iron after gastric digestion, intestinal digestion, and simulated gastrointestinal digestion were determined according to the method described in Section 2.9.1.

Zeta potential = assay type: physicochemical; settings: 1 mg/mL solution, 25 °C, Zetasizer Nano ZSE
Procedure: (§1) An appropriate amount of […] and […]-Fe solutions with a concentration of 1 mg/mL were added to U-shaped cuvettes and equilibrated at a constant temperature of 25 °C for 5 s. The Zeta potential values and particle size distributions of the samples were determined using a Zetasizer Nano ZSE analyzer to evaluate their surface charge characteristics and solution stability.

[3] = Intermolecular force analysis with dissociation reagents; assay type: physicochemical; settings: 2 mg/mL, read at 500 nm
Procedure: Referring to the study by [Sun et al. (2020)], the intermolecular forces of […]-Fe were analyzed using different dissociation reagents. The absorbance values at 500 nm of the sample solution (2 mg/mL) were measured at the initial moment of the reaction (0 min) and after 30 min, respectively. At 30 min of the reaction, 1 mol/L NaCl, 30 mmol/L DTT (dithiothreitol), 0.5 % SDS, and 6 mol/L urea were added sequentially, followed immediately by absorbance detection using an enzyme meter.

[4] = Particle size distribution; assay type: physicochemical; settings: 1 mg/mL solution, 25 °C, Zetasizer Nano ZSE
Procedure: as §1

Thermogravimetry (TG) = assay type: physicochemical; settings: TAEDKKLIQ from 249 °C to 426 °C; TAEDKKLIQ-Fe from 638 °C to 686 °C; 10 °C/min
Procedure: 5 mg of […] and […]-Fe lyophilized powders were weighed, respectively, and the thermal stability analysis was carried out by […]. The sample chamber temperature range is set from 50 to 800 °C, with a heating rate of 10 °C/min. The thermogravimetric change curves of the samples were recorded synchronously.

[5] = Temperature and pH stability test (iron retention); assay type: physicochemical; settings: 1 mg/mL aqueous solution, 2 h
Procedure: The temperature stability of […]-Fe was determined using the method described by [Qu et al. (2022)]. The aqueous solution of […]-Fe (1 mg/mL) was incubated for 2 h at a temperature gradient of 30–80 °C and a pH gradient of 2–9. […]-Fe was separated using the alcohol precipitation method to calculate the iron retention rate:(2) Iron retention%=A−A0/A×100% where A represents the total iron content added to the reaction (mmol/mL), A0 represents the iron ion content in the supernatant after the reaction (mmol/mL).

Caco-2 cells = assay: Caco-2 cell viability assay (MTT); assay type: cell-based; settings: 24 h, 490 nm, means ± SEM
Procedure: Caco-2 cell viability assay was conducted on […]-Fe according to the method of [Wu et al. (2019)]. And lactoferrin was chosen as an experimental control. When the cell fusion rate was close to 80 %, the cells were dissociated and passaged using the trypsin-EDTA mixed digest. Cultivate the 23rd generation of cells in the logarithmic growth phase at 37 °C and 5 % CO₂ for 24 h. Then, a gradient concentration of […]-Fe and Ac-[…]-Fe was added to the wells of the experimental group, and all the samples were incubated for 24 h. After incubation, 20 μL of MTT reagent was added to each well. After 2 h of reaction, 150 μL of DMSO was added and agitated for 10 min. The absorbance values at 490 nm were measured to reflect cell activity levels. Cell relative activity (%) was calculated:(3) Relative cell viability%=As−Ab/Ac−Ab×100 where: As represents the absorbance value of the sample treatment, Ab represents the absorbance value without cells, and Ac represents the absorbance value without sample treatment.

[6] = Iron chelating rate (alcohol precipitation method); assay type: binding; settings: synthesized peptide 1 mg/mL, pH 5 sodium acetate buffer, 1 mL + 2 mL FeCl2•4H2O 1.5 mM, 37 °C, 30 min, means ± SEM, three independent experiments
Procedure: The detection of iron chelation activity was performed using the method described by [Lin et al. (2021)]. The peptide solution was prepared using sodium acetate buffer. Subsequently, 1 mL of the peptide solution (1 mg/mL, pH 5) was mixed with 2 mL of FeCl₂•4H₂O (1.5 mM) and reacted at 37 °C for 30 min. Then, the alcohol precipitation method was used to determine the chelation rate of ferrous ions:(1) Iron chelating rate%=A−A1/A×100% where: A is the total amount of ions added; A1 is the content of free ions in the supernatant.
The peptides identified by mass spectrometry were synthesized by China Qiangyao Co., Ltd. (Shanghai, China) using Fmoc-protected amino acid solid-phase peptide synthesis, with the purity of these peptides evaluated at over 98 %. The ferrous ion chelating activity was verified using the method described in Section 2.3.

## O=C([O-])[C@H](O)[C@@H](O)[C@H](O)[C@H](O)CO.O=C([O-])[C@H](O)[C@@H](O)[C@H](O)[C@H](O)CO.[Fe+2] [ferrous gluconate, reference compound]
[1]; 1 % oxalic acid, 1 % phytate or 8 % dietary fiber, then simulated gastrointestinal digestion, 37 °C
  Soluble iron content in the presence of phytic acid, oxalic acid or dietary fiber alone (rank): lower

## TAEDKKLIQ-Fe
[2]
  Iron retention in simulated digestion compared with the control iron supplements: superior to that of ferrous sulfate and ferrous gluconate
Zeta potential
  Zeta potential: 41.8 mV
[3]; 30 mmol/L DTT added at 30 min, disulfide bonds
  Decrease in transmittance after DTT: 0.138
[3]; 0.5 % SDS added at 30 min, hydrophobic forces
  Decrease in transmittance after SDS: 0.103
[3]; 1 mol/L NaCl added at 30 min, electrostatic interactions
  Decrease in transmittance after NaCl: 0.20
[3]; 6 mol/L urea added at 30 min, hydrogen bonding
  Decrease in transmittance after urea: 0.09
[4]
  Particle size, peak of the distribution: 295 nm
Thermogravimetry (TG)
  Weight loss, second stage (TG): 12.32%
[5]; alcohol precipitation
  Ferrous ion retention at 30 °C to 40 °C: no significant loss observed
[5]; pH range 6-9
  Iron retention, pH 6-9: above 88%
[5]; temperature gradient 30-80 °C, above 40 °C
  Overall retention of ferrous ions as the temperature continued to increase: above 40%
Caco-2 cells; Caco-2, 0.125 mg/mL
  Relative vitality of cells (%): 98.06 ± 1.22%
Caco-2 cells; Caco-2, 0.25 mg/mL
  Relative vitality of cells (%): 97.72 ± 1.67%
Caco-2 cells; Caco-2, 0.5 mg/mL
  Relative vitality of cells (%): 97.53 ± 0.89%
Caco-2 cells; Caco-2, 1 mg/mL
  Relative vitality of cells (%): 97.21 ± 1.45%
[1]
  Retention of soluble iron with phytic acid: 76.73%
  Soluble iron content in the presence of phytic acid, oxalic acid or dietary fiber alone (rank): highest level

## QAWEKAASH [Hemoglobin subunit alpha-D(12th–20th) peptide, synthesized]
[6]
  Chelation rate (%): 81.38 ± 0.27^c %

## LSDLHAHKLR [Hemoglobin subunit alpha-A(84th–93th) peptide, synthesized]
[6]
  Chelation rate (%): 87.07 ± 0.12^b %

## TAEDKKLIQ
[2]; pH 7.6, trypsin 3 % w/w, 37 °C, 2 h, after gastric phase
  Ferrous retention after transfer to simulated intestinal fluid digestion: significant increase in ferrous retention
